Measurements as given in patent US6528049B2, “Bisexual attractants, aggregants and arrestants for adults and larvae of codling moth and other species of lepidoptera” (Trece, Inc., priority 1999, dated 2003).
“And” between values parts separate entries of the source, which are not always exact repeats. Equal entries are not always repeated.

Legend:
Assay type in all cases: in vivo, Cydia pomonella
[1] = system: codling moth; assay: Inherent attractancy field test of HPV blends in baited sticky traps in walnut orchard
Protocol: The blends listed in Table 2 were then field tested in walnut orchards for their attractancy to male and female codling moths, and also for enhancement with synthetic codling moth pheromone and other additives identified above. Their total capture (both males and females), and their individual male and female capture were determined and results obtained, were compared to insect capture obtained with purified individual ester, compound #25 namely ethyl (2E,4Z)-2,4-decadienoate, and to the codling moth male sex pheromone compound #26 in Table 3.
Individual blends containing representative aldehyde, alcohol, ester, monoterpene or sesquiterpene blends were provided in the traps in 10 mg/white septa.
Individual host-plant volatile (HPV) blends identified by the #1-23 in Table 3 were tested for codling moth attractancy in a walnut orchard, and the results were compared to the isolated purified ethyl (2E,4Z)-2,4-decadienoate (#25), to pheromone (#26) and to solvent controls (#24).
Twenty-five HPV blends and eight individual compounds were field tested. One synthetic blend, “ester blend #10,” elicited excellent codling moth attraction. In field tests, the other tested blends (see Table 3) and compounds captured no moths over a three month period, except for an “apple-skin surface extract” (Golden Delicious, ether solvent) (Σ=3 codling moth captured, 1♂: 2♀♀) and the individual compound, (E,E)-α-farnesene (Σ=1♂ codling moth captured). The field tests are presented in Table 3 and show attraction specificity for HPV ester blend #10.
(§1) Sticky traps (ICP and IIB traps, Trécé, Inc. Salinas, Calif.) were baited with either extracts, blends of HPVs, or individual HPVs (>95% purity) that evaporated from impregnated rubber septa. HPV blends, or individual HPV compounds, were diluted in hexane and pipetted onto rubber septa at approximate doses of 10 mg/septum. A single treatment septum was placed in each sticky wing-trap, and hung approximately six meters high in the outer walnut canopy. Trap liners and treatment HPV septa were replaced every 10-14 days and pheromone septa every month and tests were conducted throughout two summers.
(§2) A replicated series of different HPV treatment traps, control “blank” (unbaited) trap, and a commercial pheromone-baited trap (Trécé, Inc.) were distributed 5 trees apart throughout two distant Hartley walnut orchards and validated in 12 walnut orchards. The orchards were distinct, with one using three summer insecticide sprays and the other had no spraying. Thus, these test orchards had low vs. moderate relative populations of codling moths. Significant effects on the gender of codling moths captured were judged by paired tests, either T-test or a nonparametric test.

[2] = system: codling moth; assay: Septa colour and loading dose trap study; conditions: Ph-L2 pheromone
Protocol: Since there have been differences observed between traps containing gray, white or red septa, a study was performed to determine the significance of the specific septa and their effect on the increase or decrease of attractancy. […]

[3] = system: codling moth; assay: Paired-trap test of pheromone alone vs pheromone + ester blend #10; conditions: for Total Moths Caught: / Mean ± SEM capture of codling moths: Table 11; for Mean ± SEM capture of codling moths: paired traps, Hartley walnut orchard
From the text: The ability of the HPV ester blend #10 to influence the pheromone attractancy/preference of codling moth was resolved using paired-traps, one trap with a pheromone septum alone and the other trap with a pheromone septum and an ester blend #10 septum. […] Results are seen in Tables 10 and 11, and FIG. 3.
Table 10 illustrates interaction of pheromone with HPV ester blend #10 on codling moth attraction, when tested in a conventional low-population Hartley walnut orchard. There were 13 traps and 18 trap check dates.
(§3) Pheromone traps (sticky wing traps, Trécé, Inc.,) were hung as pairs: a pheromone only baited-trap vs. a pheromone+HPV blend-baited trap. The two traps of a test pair were attached in close competitive proximity (120 cm apart) on a common hanger bar (PVC pipe). The paired-trap bars were hung 5-6 meters high on the outer canopies of trees. A single pair-trap was hung per tree and different replicate test trees were separated by five rows in a matrix through the orchard. Each pheromone trap was baited with ½ of a commercial pheromone-impregnated rubber septum (Trécé, Inc.). Septa were sectioned by a razor blade. The HPV blends evaporated from their own separate impregnated rubber septa containing 10 mg diluted in hexane/septum).
(§4) Tests were conducted in a Harley English walnut orchard. Tests spanned the entire two year seasons April-October with traps checked, males sexed, counted and removed every 2-7 days. Significant effect on pheromone trap capture were judged by paired tests either T-test or a nonparametric test.

[4] = system: male codling moth; assay: Pheromone preference paired-trap test: pheromone alone vs pheromone + HPV; conditions: Table 8, trap paired with the HPV of the same table line
From the text: Interaction of synthetic apple and pear odor blends, described above in Table 2, and their effect on the attractancy of synthetic pheromone to codling moth was also studied. For that purpose, series of paired-traps containing pheromone alone or pheromone in combination with synthetic host plant volatile blends were placed in walnut orchards.
Interaction of individual synthetic host plant volatiles or blends on the attractiveness of synthetic male pheromone to male codling moth administered in paired traps with pheromone alone or with pheromone and attractant 10 mg/red septum was also studied.
as §3, §4

[5] = system: codling moth; assay: Trap capture with purified (2E,4E) and (2E,4Z) 2,4-decadienoic acid esters; conditions: 1 mg dose/gray septum; four orchards; means of 21 trap checks
Protocol: In this study, test compounds were highly purified synthetic samples. The purities of the compounds are expressed as percentages. Individual traps were baited with 1 mg dose/gray septum; five replicate blocks in four orchards; means of 21 total trap checks.

[6] = system: codling moth; assay: Rapid-kill liquid traps baited with ester blend #10 or pheromone
Protocol: Experimental challenge to this question was to use a novel, funnel-liquid-jar-trap (“rapid-kill liquid traps”) to rapidly kill (drown) attracted moths. […] Again, it was the females who were predominantly captured (sex ratio: 1♂:3.0♀♀ insect attracted).
Again, females were preferentially attracted (3:1 ratio) to ester blend #10 rapid kill liquid traps, while only males were seen to be attracted to the pheromone traps.
A second series of inherent attractancy tests were conducted on the most-active HPV blend (ester blend #10) using a novel, funnel-liquid (50:50 water and antifreeze) jar-trap adapted from a prototype of Trece, Inc., to rapidly kill (drown) attracted moths (“rapid-kill liquid traps”). This study comprised of a pheromone standard trap, a control blank trap and seven replicated HPV ester blend #10-baited traps. The rapid-kill traps were hung six meters high on trees distributed five rows apart in a Hartley walnut orchard with a moderate codling moth population. HPV ester blend #10 was loaded on a rubber septa at approximate doses of 10 mg/septum and were replaced every 10 days, while the commercial pheromone septum was replaced monthly.

[7] = system: codling moth; assay: Ester blend #10-baited vs pheromone-baited sticky traps; conditions: Table 13; baited sticky trap
From the text: Attraction of female and male codling moths to ester blend #10 in baited sticky trap is seen in FIG. 1. […] Results are numerically expressed in Table 13.
Table 13 compares two orchard treatments with ester blend #10 and pheromone-only baited sticky traps. […] In the pheromone baited traps, only male insects were captured.
The female flight pattern depicted by capture in ester blend #10-baited sticky traps was related to the male flight pattern to pheromone-baited traps over the 3 month test period. Results are seen in FIG. 2, which is a comparative graph of codling moth flight patterns delineated by males captured in pheromone traps versus both sexes captured in ester blend #10 traps. […] The male pheromone curve rises sooner and lasts longer per flight, while the female ester blend #10 curve drops off sooner. These temporal-phase shifts of the flight curves represent the earlier and longer emergence of male codling moth for each flight period.
as §1, §2

[8] = system: codling moth; assay: Sticky traps baited with the single compound or pheromone; conditions: Table 15, sticky trap
From the text: FIG. 5 illustrates mean attraction of female and male codling moths to sticky traps baited with a single host plant volatile, ethyl (2E,4Z)-2,4-decadienoate. The attraction was followed over a two month period.

[9] = system: codling moth; assay: Trap capture with proportional mixes of ethyl 2,4-decadienoate isomers; conditions: 1 mg dose/gray septum
Protocol: Additionally, studies were performed to determine the attraction of codling moth to proportional mixes of (2E,4Z) and (2E,4E) isomers of ethyl 2,4-decadienoate and highly purified samples of each. Traps were baited with 1 mg dose/gray septum.

[10] = system: codling moth; assay: Field study of individual alcohols, aldehydes and esters; conditions: individual compounds typically of purity 90-98%
From the text: Attractive activity of these compounds for male and female codling moth was compared to purified ethyl (2E,4Z)-2,4-decadienoate.
When the cumulative evaluation of all studied compounds and/or blends containing aldehyde, alcohol, ester and terpene compounds was made, the following results clearly confirmed the findings seen in Table 3.

[11] = Gray Septa, High (high population conventional orchard)
[12] = Gray Septa, Low (low population organic orchard)
[13] = Red Septa, High (high population conventional orchard)
[14] = Red Septa, Low (low population organic orchard)
[15] = 3 traps, 43 trap checks (pheromone: 1 trap, 19 trap checks)
[16] = walnut orchard, blends 10 mg/white septa, ethyl (2E,4Z)-2,4-decadienoate 5 mg

C=C/C(C)=C/C/C=C(\C)CCC=C(C)C [(E,E)-α-farnesene]
Σ codling moth captured ([1]; field tests over a three month period): 1

C/C=C/C=C/CCCCCCCO [Pheromone, (E,E)-8,10-dodecadienol, reference compound]
♂♂ ± SEM (Ph-L2 pheromone) [2, 11]: 0.08 ± 0.05 | ♂♂ ± SEM (under Ph-L2 pheromone) [2, 11]: 0.05 ± 0.05 | ♂♂ ± SEM (Ph-L2 pheromone) [2, 12]: 0 | ♂♂ ± SEM (under Ph-L2 pheromone) [2, 12]: 1.28 ± 0.61 | ♂♂ ± SEM (Ph-L2 pheromone) [2, 13]: 0.06 ± 0.06 | ♂♂ ± SEM (under Ph-L2 pheromone) [2, 13]: 9.98 ± 2.94 | ♂♂ ± SEM (Ph-L2 pheromone) [2, 14]: 0 | ♂♂ ± SEM (under Ph-L2 pheromone) [2, 14]: 0.80 ± 0.31 | Total Moths Caught: Male ([3]; Table 10, conventional low-population Hartley walnut orchard): 46 | Male capture, Mean ± SEM ([3]; Table 10, conventional low-population Hartley walnut orchard, 13 traps, 18 trap check dates): 0.55 Moths/Night | Total Moths Caught: ([3]; Test 1): 212 | Mean ± SEM capture of codling moths ([3]; Test 1 (2 Reps)): 0.74 ± 0.13 Moths/Trap/Night | Total Moths Caught: ([3]; Test 2): 745 | Mean ± SEM capture of codling moths ([3]; Test 2 (2 Reps, 50 trap checks)): 2.54 ± 0.43 Moths/Trap/Night | Male CM Captured, Pheromone Alone Trap: ± SEM ([4]; Orchard #1): 0.73 ± 0.15 ♂♂/trap/night and 1.09 ± 0.27 ♂♂/trap/night and 1.04 ± 0.21 ♂♂/trap/night and 0.79 ± 0.15 ♂♂/trap/night and 1.24 ± 0.52 ♂♂/trap/night and 0.72 ± 0.13 ♂♂/trap/night | Male CM Captured, Pheromone Alone Trap: ± SEM ([4]; Orchard #3): 2.41 ± 0.42 ♂♂/trap/night and 2.98 ± 0.49 ♂♂/trap/night and 2.33 ± 0.41 ♂♂/trap/night and 4.40 ± 0.87 ♂♂/trap/night and 2.60 ± 0.38 ♂♂/trap/night and 3.82 ± 0.42 ♂♂/trap/night | MALE CM Captured: ♂♂/trap/night ± SEM [5]: 7.13 ± 1.94 ♂♂/trap/night | Total CM Captured: CM/trap/night ± SEM [5]: 7.13 ± 1.94 CM/trap/night | Female Capture: Sum: ([6]; Table 14): 0 Moths/Trap/Night | Male Capture: Sum: ([6]; Table 14): 18.3 Moths/Trap/Night | Female Capture: Mean ± SEM ([6]; Table 14, one month): 0 Moths/Trap/Night | Male Capture: Mean ± SEM ([6]; Table 14, one month): 3.04 ± 0.08 Moths/Trap/Night | Female Capture: Mean ± SEM [7]: 0 Moths/Trap/Night | Female Capture: Sum: [7]: 0 Moths/Trap/Night | Male Capture: Mean ± SEM [7]: 4.96 ± 1.04 Moths/Trap/Night | Male Capture: Sum: [7]: 94.3 Moths/Trap/Night | Female Capture: Sum: [8]: 0 Moths/Trap/Night | Male Capture: Sum: [8]: 94.3 Moths/Trap/Night | Female Capture: Mean ± SEM [8, 15]: 0 Moths/Trap/Night | Male Capture: Mean ± SEM [8, 15]: 4.96 ± 1.04 Moths/Trap/Night | FEMALE CM Captured with HPV; ♀♀/trap night ± SEM [1, 16]: 0.0 ♀♀/trap night | MALE CM Captured with HPV; ♂♂/trap/night ± SEM [1, 16]: 3.15 ± 0.98 ♂♂/trap/night | Total CM Captured with HPV: (CM/trap/night ± SEM) [1, 16]: 3.15 ± 0.98 CM/trap/night

CCCCC/C=C/C=C/C(=O)OCC [Ethyl (2E,4E)-2,4-Decadienoate]
MALE CM Captured: ♂♂/trap/night ± SEM [5]: 0.24 ± 0.06 ♂♂/trap/night | Total CM Captured: CM/trap/night ± SEM [5]: 0.77 ± 0.20 CM/trap/night | Female CM Captured ♀♀/trap/night ± SEM [9]: 0.05 ± 0.05 ♀♀/trap/night | MALE CM Captured: ♂♂/trap/night ± SEM [9]: 0.19 ± 0.05 ♂♂/trap/night | Total CM Captured: CM/trap ± SEM [9]: 0.24 ± 0.10 CM/trap

CCCCCC=CC=CCO [(2,4)-2,4-decadien-1-ol]
attractancy to male and female codling moth (in words) [10]: very low male attractancy

CCCCC/C=C\C=C\C(=O)OCCCCCC [Hexyl (2E,4Z)-2,4-Decadienoate (91. 6%), Hexyl (2E,4Z)-2,4-Decadienoate]
FEMALE CM Captured: ♂♂/trap/night ± SEM [5]: 0.36 ± 0.18 ♀♀/trap/night | MALE CM Captured: ♂♂/trap/night ± SEM [5]: 0.21 ± 0.09 ♂♂/trap/night | Total CM Captured: CM/trap/night ± SEM [5]: 0.57 ± 0.22 CM/trap/night

CCCCCCC/C=C/COC(C)=O [(E)-2-decen-1-yl acetate]
attractancy to male and female codling moth (in words) [10]: most active

CCCCC/C=C/C=C/C(=O)OC [Methyl (2E,4E)-2,4-Decadienoate]
FEMALE CM Captured: ♂♂/trap/night ± SEM [5]: 0.04 ± 0.03 ♀♀/trap/night | MALE CM Captured: ♂♂/trap/night ± SEM [5]: 0.01 ± 0.01 ♂♂/trap/night | Total CM Captured: CM/trap/night ± SEM [5]: 0.05 ± 0.03 CM/trap/night

CCCCC/C=C\C=C\C(=O)OC [Methyl (2E,4Z)-2,4-Decadienoate]
attractancy to male and female codling moth (in words) [10]: most active | FEMALE CM Captured: ♂♂/trap/night ± SEM [5]: 0.41 ± 0.14 ♀♀/trap/night | MALE CM Captured: ♂♂/trap/night ± SEM [5]: 0.12 ± 0.07 ♂♂/trap/night | Total CM Captured: CM/trap/night ± SEM [5]: 0.54 ± 0.19 CM/trap/night

CCCCCCC/C=C/C(=O)OCC [ethyl (2E)-2-decenoate]
attractancy to male and female codling moth (in words) [10]: most active
